Assay results from patent publication US20140128357A1, “METHODS OF PRODUCING AND USING BRASSINOSTEROIDS TO PROMOTE GROWTH, REPAIR AND MAINTENANCE OF SKELETAL MUSCLE AND SKIN” (Rutgers University, priority 2010, published 2014).

Experiments:
L6 rat myotubes [1] = assay: Protein degradation, release of acid-soluble [3H]-phenylalanine; format: cell-based; conditions: 10 μM; for Protein degradation (% decrease over control): 4 h
Experimental: In some aspects, cell culture experiments were carried out. Rat L6 skeletal muscle cell line CRL-1458 was obtained from ATCC (Manassas, Va.). Myoblasts were routinely maintained in Dulbecco's modified Eagle's medium (DMEM) containing 10% FBS and 0.1% penicillin-streptomycin at 37° C. and 5% CO2. Cells were subcultured into 24-well plates for protein synthesis, degradation, and cell viability studies and into 6-well plates for Western blot analyses (Greiner Bio One, Monroe, N.C.). Once cells reached 90% confluence, differentiation was induced by lowering the serum concentration to 2%, and medium was changed every 2 days. […] NIH 3T3 murine embryonic fibroblast cell line (ATCC #CCL-92) was maintained in DMEM and 10% FBS at 37° C. in 5% CO2, and passaged every 3-4 days.
In various aspects, protein degradation is measured to determine the effect of brassinosteroid on a particular protein. All known methods for measuring protein degradation are included in the methods of the disclosure. The effect of brassinosteroids on protein degradation was investigated in fully differentiated myotubes as described by Fawcett et al. (Arch. Biochem. Biophys. 385:357-363, 2001) with slight modifications. Fully differentiated myotubes were incubated for 16 h to allow labeling of cellular proteins with 1.5 μCi/mL [^3H]-phenylalanine. […] The incubation was stopped by placing the cells on ice, and protein in the medium was precipitated with 5% trichloroacetic acid. Specific radioactivity of protein-free phenylalanine was quantified using liquid scintillation counter LS 6500 (Beckman Coulter, Fullerton, Calif.) and normalized to mg of total cell protein determined by BCA protein assay (Pierce Biotechnology, Rockford, Ill.).
The bioactivity of HB and its analogs (as shown in Table 3) were also evaluated by measuring decreases in protein degradation in the L6 rat skeletal muscle cells in vitro. Cells were labeled overnight with [^3H]-phenylalanine and subsequently treated for 4 h in triplicate with vehicle (0.1% ethanol) or test compound (10 μM), and protein degradation was assessed as release of acid-soluble [^3H]-phenylalanine into the media normalized by total protein (Table 3).

[2] = test system: NIH 3T3 murine fibroblast cell line; assay: Cytotoxicity, MTT assay in 3T3 fibroblasts; format: cell-based, mouse
Experimental: FIG. 9. Cell survival curves as measured by MTT assay for brassinosteroids 1-9 against the murine fibroblast cell line NIH-3T3. Cells were incubated with various concentrations of brassinosteroids (0.3-30 μM) for 24 h at 37° C. The mean absorbance of the control cells represented 100% cell proliferation, and the mean absorbance of treated cells was related to control values to determine sensitivity. Error bars represent standard error (n=6) from mean cell proliferation as determined by repeated experiments.
In various aspects, cell viability is measured and the effects of doses of compound and test reagents are tested in cell lines. In some aspects, cell viability was measured by the MTT (3-(4,5-Dimethylthiazol-2-yl)-2,5-diphenyltetrazolium bromide) assay in triplicate (Mosmann et al., J. Immunol. Methods 65:55-63, 1983) and quantified spectrophotometrically at 550 nm using a microplate reader (Molecular Devices, Sunnyvale, Calif.).
3T3 fibroblasts were seeded in a 96-well flat bottom plate at a density of 1×10^4 cells/well. Cell viability was measured by an MTT (3-(4,5-Dimethylthiazol-2-yl)-2,5-diphenyltetrazolium bromide) assay in triplicate (0.3-30 μM of test substance for […]) essentially as described by Mosmann (J. Immunol. Methods 65, 55-63, 1983) and quantified spectrophotometrically at 550 nm using a microplate reader (Molecular Devices, Sunnyvale, Calif.). […] For cell proliferation studies, cells were treated in triplicate with 0.1-10 μM of test substance for 24 h and assayed using a BrdU (5-bromo-2′-deoxyuridine) kit from Amersham (Uppsala, Sweden).

[3] = test system: 3T3 Swiss fibroblast monolayers; assay: Scratch wound closure in vitro; format: cell-based, mouse; conditions: for Scratch wound closure at 5 μM, % of control: 12 h (Table 6); for Wound Closure (% over control): 10 μM, 12 h (Table 4)
Experimental: 3T3 fibroblasts were seeded into 24-well dishes at a concentration of 3×10^5 cells/ml and cultured to nearly confluent cell monolayers. On the day of the experiment, a linear wound was generated in the monolayer with a sterile 100 μl plastic pipette tip and any cellular debris was removed by washing cells once with sterile PBS. Fresh DMEM medium containing vehicle (0.1% ethanol), positive control (0.5% FBS), or various concentrations of the fractions, sub-fractions or pure compounds was added to a set of 3 wells per dose and incubated for 12 h at 37° C. with 5% CO2. Cells were then visualized with 20 μl of 10% methylene blue in PBS for 5 min. Three representative images of the scratched areas from each well were photographed at 0 and 12 h to estimate the scratch wound closure. Images were analyzed using ImageJ program (NIH, Bethesda, Md.) and % wound closure was calculated relative to vehicle control and was reported as wound closure % over control (Table 4). 3T3 Swiss fibroblast were seeded into 24-well tissue culture at a concentration of 3×10^5 cells/ml and cultured to nearly confluent cell monolayers. Then, a linear wound was generated in the monolayer with a sterile 100 μl plastic pipette tip. Any cellular debris was removed by washing with PBS. DMEM medium with vehicle (0.1% ethanol), FBS (1%, positive control), or various concentrations of brassinosteroids were added to a set of 3 wells per dose and incubated for 12 h at 37° C. with 5% CO2. Cells were visualized in 10% methylene blue for 5 minutes. Three representative images from each well of the scratched areas under each condition were photographed to estimate the relative migration of cells at 0 and 12 h post-treatment. Data were analyzed using ImageJ software available online from the National Institutes of Health (rsbweb.nih.gov/ij/) by calculating the percentage of scratch closure at each dose point relative to control.

L6 rat myotubes [4] = assay: Protein synthesis, [3H]-phenylalanine incorporation in myotubes; format: cell-based; conditions: for Protein synthesis (% increase over control): 4 h
Experimental: In some aspects, cell culture experiments were carried out. Rat L6 skeletal muscle cell line CRL-1458 was obtained from ATCC (Manassas, Va.). Myoblasts were routinely maintained in Dulbecco's modified Eagle's medium (DMEM) containing 10% FBS and 0.1% penicillin-streptomycin at 37° C. and 5% CO2. Cells were subcultured into 24-well plates for protein synthesis, degradation, and cell viability studies and into 6-well plates for Western blot analyses (Greiner Bio One, Monroe, N.C.). Once cells reached 90% confluence, differentiation was induced by lowering the serum concentration to 2%, and medium was changed every 2 days. After 7-9 days of culture the myoblasts had fused into multinucleated myotubes (Mandel et al., Nature 251:618-620, 1974). NIH 3T3 murine embryonic fibroblast cell line (ATCC #CCL-92) was maintained in DMEM and 10% FBS at 37° C. in 5% CO2, and passaged every 3-4 days.
In various aspects, protein synthesis is measured to determine the effect of brassinosteroid on a particular protein. All known methods for measuring protein synthesis are included in the methods of the disclosure. In brassinosteroid dose response studies, fully differentiated myotubes were washed with serum-free DMEM and treated in triplicate with vehicle (0.1% ethanol), increasing concentrations of HB, or 6.5 nM of insulin-like growth factor-1 (IGF-1) as a positive control. Compounds were added to serum-free medium containing 0.5 μCi/mL [^3H]-phenylalanine and incubated for 4 h. For the HB time course study, fully differentiated myotubes were treated with 3 μM HB for 1-24 h using the same culture conditions. The incubation was stopped by placing cells on ice, discarding the medium, and washing the cells extensively with ice-cold PBS to remove the non-incorporated radiolabel. Proteins were precipitated with 5% trichloroacetic acid and dissolved in 0.5N NaOH (Montgomery et al., Methods Cell. Sci. 24:123-129, 2002). Specific radioactivity of protein-bound phenylalanine was quantified using liquid scintillation counter LS 6500 (Beckman Coulter, Fullerton, Calif.) and normalized to mg of total protein determined by BCA protein assay (Pierce Biotechnology, Rockford, Ill.).
The bioactivity of HB and its analogs was evaluated by measuring increases in protein synthesis in the L6 rat skeletal muscle cells in vitro. Cells were incubated for 4 h with [^3H]-phenylalanine and treated in triplicate with vehicle (0.1% ethanol) or test compound (10 μM), and protein synthesis was measured as incorporation of [^3H]-phenylalanine into protein normalized by total protein (Table 3). Under these conditions, both HB and (22S,23S)-homocastasterone increased protein synthesis by 37.2±5.9% (p<0.001) and 41.0±2.7% (p<0.001), respectively. This protein synthesis increase compared favorably to the biological activity of IGF-1 at 6.5 nM (42.5±4.5%, p<0.001) that served as a positive control in this assay. Removal of the 2α-hydroxyl group and fluorination at C-3 in the A ring (compound IDs 3-4 in Table 3) led to about a 50% decrease in bioactivity (24.6±5.3%, p<0.01 and 22.5±2.7%, p<0.01, respectively) compared to the positive control. However, there was still an increase in protein synthesis. […] Modifications in the side chain (compound IDs 7-9 in Table 3) abolished the activity.

[5] = test system: AKT (Ser473) phosphorylation in L6 myotubes; assay: AKT (Ser473) phosphorylation, Western blot; format: cell-based, rat
Experimental: In some aspects, Western blot analyses were carried out. Fully differentiated L6 myotubes were cultured as described above, and whole cell extracts were prepared in ice-cold RIPA buffer supplemented with 10 mM sodium fluoride, 2 mM sodium orthovanadate, 1 mM PMSF, and protease inhibitor cocktail (Sigma) and centrifuged at 12,000 g for 20 min at 4° C. Equal amounts of protein (50 μg) from the supernatants were separated on 10% SDS polyacrylamide gels and blotted onto the nitrocellulose membrane. Western blot detection was carried out with monoclonal phospho-AKT (Ser473) antibodies according to the manufacturer's instructions (Cell Signaling Technology, Danvers, Mass.). After being washed, the blots were incubated with an anti-rabbit peroxidase-labeled secondary antibody and visualized using ECL Western Blotting Detection Reagent (GE Healthcare, Piscataway, N.J.). After being stripped, the same blots were probed with total AKT antibodies to serve as loading controls.

## CC[C@@H](C(C)C)[C@H](O)[C@@H](O)[C@@H](C)[C@H]1CC[C@H]2[C@@H]3COC(=O)[C@H]4C[C@H](F)CC[C@]4(C)[C@H]3CC[C@]12C [Compound 3, (22S,23S,24S)-3α-fluoro-22,23-dihydroxy-24-ethyl-B-homo-7-oxa-5α-cholestan-6-one]
L6 rat myotubes [1]
  Protein degradation (% decrease over control): −20.8 ± 0.5 %
[2]
  IC50: ~30 µM
  cytotoxicity compared to the original brassinosteroids: increased cytotoxicity
[3]
  Scratch wound closure at 5 μM, % of control: 15.3 ± 2.6%
  Wound Closure (% over control): 15.3 ± 2.6%
L6 rat myotubes [4]; 10 μM
  Protein synthesis (% increase over control): 24.6±5.3%

## CC[C@@H](C(C)C)[C@H](O)[C@@H](O)[C@@H](C)[C@H]1CC[C@H]2[C@@H]3CNC(=O)[C@H]4C[C@H](O)[C@H](O)C[C@]4(C)[C@H]3CC[C@]12C [Compound 6, (22S,23S,24S)-2α,3α-22,23-tetrahydroxy-24-ethyl-B-homo-7-aza-5α-cholestan-6-one]
L6 rat myotubes [1]
  effect of structural modification on protein degradation activity, in words: completely abolished its effect on protein degradation
  Protein degradation (% decrease over control): −0.6 ± 2.9%
[2]
  IC50: > 30 µM
[3]
  Scratch wound closure at 5 μM, % of control: 30.5 ± 4.2 %
  Wound Closure (% over control): 27.3 ± 3.6 %
[3]; 0.1-10 μM, 12 h (FIG. 17)
  concentration of highest scratch wound closure activity: 3 µM
L6 rat myotubes [4]; 10 μM
  effect of structural modification on activation of protein synthesis, in words: reduced biological activity by half
  Protein synthesis (% increase over control): 20.9 ± 2.4 %

## IGF-1: Insulin-like growth factor 1, positive control for protein synthesis
[5]
  time to AKT phosphorylation: ≤ 10 min
L6 rat myotubes [4]; IGF-1 6.5 nM positive control
  Protein synthesis (% increase over control): 42.5±4.5%
